pIC50: −log10 of the molar value. Some results are limits rather than exact numbers.

This assay has as its target T1, human Kir2.1 (Homo sapiens, UniProt P63252).
T1 construct: expressed in transfected cells
T1 sequence (P63252 1-427): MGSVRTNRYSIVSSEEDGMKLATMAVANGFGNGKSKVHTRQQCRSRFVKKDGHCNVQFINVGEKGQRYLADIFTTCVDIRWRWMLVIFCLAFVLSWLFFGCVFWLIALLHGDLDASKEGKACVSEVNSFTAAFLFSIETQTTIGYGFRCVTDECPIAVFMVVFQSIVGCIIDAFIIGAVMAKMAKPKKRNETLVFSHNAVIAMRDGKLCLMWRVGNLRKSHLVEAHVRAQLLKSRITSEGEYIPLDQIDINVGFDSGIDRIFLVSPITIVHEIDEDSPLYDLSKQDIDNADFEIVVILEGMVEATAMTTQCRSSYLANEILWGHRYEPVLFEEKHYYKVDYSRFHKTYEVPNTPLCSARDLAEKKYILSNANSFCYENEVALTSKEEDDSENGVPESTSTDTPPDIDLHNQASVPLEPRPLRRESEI
As to the kind of experiment: Kir2.1 thallium flux assay. The class given is cell-based. The note with it: for Thallium Flux Potency IC50 / pIC50: T-REx-HEK-293 cells expressing human Kir2.1, 4PL fit, top concentration 30 μM; for Thallium Flux Efficacy (% Inhibition) / Emax: efficacy from 4PL fit, relative to ML133; for pIC50: read-out: Thallium Flux Potency IC50; for inhibition at 30 µM: compounds not fitting 4PL (> 10 μM): value at 30 μM relative to 30 μM ML133, read-out: Thallium Flux Efficacy (% Inhibition), 30 μM measured value; for Emax: read-out: Thallium Flux Efficacy (% Inhibition). The method, then:
Thallium Flux Assay Experimental Conditions
The Tl+ flux assays were conducted as previously described with modifications optimized for Kir2.1 cell line as described below.1
Briefly, stable T-REx-HEK-293 cells expressing human K ir2.1 were cultured in DMEM growth medium (Catalog #11965-092, Gibco, Billings, MT) containing 10% heat-inactivated FBS (Catalog #16140, Gibco), 100 U/mL PenStrep, 5 μg/mL Blasticidin S, and 250 μg/mL Hygromycin.
The day prior to the experiment, cells at ~90% confluency were resuspended in plating media, which consisted of the same components as the growth media, except that heat-inactivated FBS was replaced with dialyzed FBS (Catalog #26400, Gibco). Tetracycline was added to the plating media to achieve a final concentration of 1 μg/ml to induce hKir2.1 expression. Cells were then counted and plated at 15,000 cells/well in black-walled, amine- or PDL- coated, 384-well plates at 20 μl/well (Corning, Corning, NY). On the day of experiment, the media was removed from the cell plate and replaced with 20 μl/well of Tl+-sensitive dye loading solution containing 2.5 μg/ml Thallos-AM (Catalog #11000-050, ION Biosciences, San Marcos, TX) in assay buffer using a Multidrop Combi dispenser (Thermo Fisher Scientific, Walkham, MA). Cell plates loaded with dye solution were incubated for 1 hour at room temperature. Following incubation, the cell plate was washed with HBSS assay buffer containing 20 mM HEPES using a BioTek ELx 405 TS plate washer (Agilent, Santa Clara, CA), leaving 20 μl of assay buffer in each well. The cell plate was then transferred to a Panoptic kinetic imaging plate reader (WaveFront Biosciences, Franklin, TN) for imaging at 1 Hz, 482/35 nm excitation and 536/40 nm emission for 10 seconds. Following this, 20 μl/well of HBSS assay buffer containing test compounds at 2-fold over their final concentrations were added and imaging continued for another eight minutes, after which 10 μl/well of chloride-free Tl+ stimulus solution was added (Catalog #11000-050, ION Biosciences). The final Tl2SO4 concentration in cell plate post-Tl+ stimulus solution addition was 0.25 mM. Images were collected for an additional two minutes. A ten-point concentration series from 30 μM to 2 nM with a 1:3 dilution factor was generated using an Echo liquid handler 650 (Labcyte, San Jose, CA). Final DMSO concentration, 0.3% (v/v) in the assay was constant across all compound concentrations.
The initial slopes of the Tl+-induced fluorescence changes were fit to a four-parameter logistic equation using our in-house software Waveguide to determine potency and efficacy values. […]
Bauer, J. A.; Days, E. L.; Lindsley, C. […]

With `FS(F)(F)(F)(F)c1ccc(CNCc2cccc3ccccc23)cc1` [Compound 3c], the “Thallium Flux Potency IC50” value is “inactive” and the “Thallium Flux Efficacy (% Inhibition)” value is “inactive”.
Turning to `COc1ccc(CNCc2ccc(-c3cnn(C)c3)cc2)cc1` [Compound 5u], the “Thallium Flux Potency IC50” value is “inactive” and the “Thallium Flux Efficacy (% Inhibition)” value is “inactive”.
As for `O=S1(=O)CCCN1c1ccc(CNCc2cccc3ccccc23)cc1` [Compound 3k], the “Thallium Flux Potency IC50” value was “inactive” and the “Thallium Flux Efficacy (% Inhibition)” value was “inactive”.
For `COc1ccc(CNCc2cccc3ncccc23)cc1` [Compound 5d], the “Thallium Flux Potency IC50” value was “inactive” and the “Thallium Flux Efficacy (% Inhibition)” value was “inactive”.
`Cc1cc(C)n(-c2ccc(CNCc3cccc4ccccc34)cc2)n1` [Compound 3e]: the pIC50 is below 5.00 and the inhibition at 30 µM was 50%.
The like results for `COc1ccc(CNCc2ccc(N3CCCCC3)cc2)cc1` [Compound 5w] were, in that order, below 5.00 and 53%.
As to `COc1ccc(CNCc2ccc(-c3ccncc3)cc2)cc1` [Compound 5n], the pIC50 was 4.90 and the Emax stood at 98%.
Turning to `COc1ccc(CNCc2cccc3c2OC(F)(F)O3)cc1` [Compound 5g], the “Thallium Flux Potency IC50” value was “inactive” and the “Thallium Flux Efficacy (% Inhibition)” value was “inactive”.
Consider `COc1ccc(CNCc2nccc3ccccc23)cc1` [Compound 5a], for which the “Thallium Flux Potency IC50” value is “inactive” and the “Thallium Flux Efficacy (% Inhibition)” value was “inactive”.
As for `COc1ccc(CNCc2cccn3ccnc23)cc1` [Compound 5f], the “Thallium Flux Potency IC50” value was “inactive” and the “Thallium Flux Efficacy (% Inhibition)” value is “inactive”.
Take `COc1ccc(CNCc2cccc3cnccc23)cc1` [Compound 5c]: the pIC50 is below 5.00 and the inhibition at 30 µM is 45%.
For `COc1ccc(CNCc2ccc(-c3cccnc3)cc2)cc1` [Compound 5m], the pIC50 was 4.97 and the Emax is 98%.
With `COc1ccc2c(c1)CCN(Cc1cccc3ccccc13)C2` [Compound 3g], the “Thallium Flux Potency IC50” value was “inactive” and the “Thallium Flux Efficacy (% Inhibition)” value was “inactive”.
With `COc1ccc(CNCc2ccc(N3CCCCS3(=O)=O)cc2)cc1` [Compound 5z], the “Thallium Flux Potency IC50” value is “inactive” and the “Thallium Flux Efficacy (% Inhibition)” value is “inactive”.
For the molecule `COc1ccc(CNCc2ccc(-c3ccc(F)cc3)cc2)cc1` [Compound 5q], the pIC50 is 5.03 and the Emax stood at 99%.
For `O=C1CCCN1c1ccc(CNCc2cccc3ccccc23)cc1` [Compound 3d], the “Thallium Flux Potency IC50” value was “inactive” and the “Thallium Flux Efficacy (% Inhibition)” value was “inactive”.
On to `OCc1ccc(CNCc2cccc3ccccc23)cc1` [Compound 3f], for which the “Thallium Flux Potency IC50” value was “inactive” and the “Thallium Flux Efficacy (% Inhibition)” value was “inactive”.
In the case of `COc1ccc(CNCc2ccc(N3CCOCC3)cc2)cc1` [Compound 5y], the “Thallium Flux Potency IC50” value is “inactive” and the “Thallium Flux Efficacy (% Inhibition)” value is “inactive”.
`FC(F)Oc1ccc(CNCc2cccc3ccccc23)cc1` [Compound 3a]: the pIC50 is below 5.00 and the inhibition at 30 µM is 45%.
The like results for `COc1ccc(CNCc2ccnc3ccccc23)cc1` [Compound 5e] were, in that order, below 5.00 and 75%.
Regarding `COCCOc1ccc(CNCc2cccc3ccccc23)cc1` [Compound 3j], the “Thallium Flux Potency IC50” value was “inactive” and the “Thallium Flux Efficacy (% Inhibition)” value was “inactive”.
With `COc1ccc(CNCc2ccc(N3CCCCCC3)cc2)cc1` [Compound 5x], the pIC50 is below 5.00 and the inhibition at 30 µM was determined as 46%.
On the same counts, the results for `COc1ccc(CNCc2ccc(N3CCCC3)cc2)cc1` [Compound 5v] are below 5.00 and 96%.
Turning to `COc1ccc(CNCc2ccc(-c3ccccc3F)cc2)cc1` [Compound 5o], the pIC50 is 4.97 and the Emax amounted to 102%.
As for `N#Cc1ccc(CNCc2cccc3ccccc23)cc1` [Compound 3b], the pIC50 was below 5.00 and the inhibition at 30 µM is 88%.
On the same counts, the results for `COc1ccc(CNCc2ccc(-c3ccccn3)cc2)cc1` [Compound 5l] are below 5.00 and 90%.
For `CP(C)(=O)c1ccc(CNCc2cccc3ccccc23)cc1` [Compound 3l], the “Thallium Flux Potency IC50” value is “inactive” and the “Thallium Flux Efficacy (% Inhibition)” value was “inactive”.
In the case of `c1ccc2c(c1)CN(Cc1cccc3ccccc13)CCO2` [Compound 3h], the “Thallium Flux Potency IC50” value is “inactive” and the “Thallium Flux Efficacy (% Inhibition)” value is “inactive”.

These data come from publication PMC12434521, “Characterization of Next-Generation Inhibitors for the Inward-Rectifier Potassium Channel Kir2.1: Discovery of VU6080824” (ACS Medicinal Chemistry Letters, 2025).
